Measured values taken from patent publication US9233086B2 (THE REGENTS OF THE UNIVERSITY OF MICHIGAN, priority 2010, dated 2016).
Read-outs that look alike come from different tables or passages of the source. *1 amine or outer side, *2 acyl side, *3 side chain or, on linkers, in order; H or OH if unused. Where a SMILES comes first, the peptide text is derived from it. [ ]: non-standard residue; d: D form. The star is where a group is joined. NHPhenethyl = c1ccc(CCN*)cc1; Isobutyryl = CC(C)C(=O)*; Ac4c = NC1(C(=O)O)CCC1; Deg = CCC(N)(CC)C(=O)O; Pentanoyl = CCCCC(=O)*; Aib = CC(C)(N)C(=O)O; CO = O=C([*:1])[*:2]; NHBn = c1ccc(CN*)cc1; Butyryl = CCCC(=O)*; NHPh = c1ccc(N*)cc1; NHiPr = CC(C)N*

Biological target: WDR5 (Homo sapiens (Human), UniProt P61964)
Assay: FP based competitive binding assay to WDR5
Settings: for Ki: Ki calculated by equation of ref. 31, read-out: Ki ± SD; for times less potent than Ac-3mer: ratio vs Ac-3mer
Method: Another aspect of the invention is development of a Fluorescent Polarization (FP) based competitive binding assay. […] Next, the millipolarization (mP) values were measured at different time points in order to determine equilibrium duration and stability.
Accordingly, the optimal protein concentrations for the competitive assay was investigated.
All the FP based experiments were performed in MICROFLUOR® 2 Black, “U” Bottom, 96-well Microtiter Plates (ThermoSci.) and FP was measured as mP units in a microplate reader (Tecan Ultra) with excitation at 485 nm and emission at 530 nm. The Kd of the tracers and the IC50 value of the inhibitors were calculated using GraphPad Prism 4 software.
The binding affinities of the synthetic peptides shown in the study were measured using this competitive binding assay. A pre-incubated complex solution of WDR5Δ23 and the tracer in 120 μl assay buffer were added to dilutions of the test compound in 5 μl DMSO, giving final concentrations of WDR5Δ23 and the tracer of 4 nM and 0.6 nM, respectively. […] The plates were incubated with shaking at room temperature. The mP values were measured after five hours of incubation and Ki values were calculated using the equation described previously(31).

[1] = 4 nM WDR5Δ23, 0.6 nM 10mer-Thr-FAM tracer
[2] = 4 nM WDR5Δ23, 0.6 nM 10mer-Thr-FAM tracer, read-out: IC50 ± SD
[3] = read-out: Binding Affinity to WDR5 (IC50 ± SD), Table 5 peptidomimetics

IC50 [3] | Molecule | also measured
– | CC(=O)N[C@@H](C)C(=O)N[C@@H](CCCNC(=N)N)C(=O)N[C@@H](C)C(=O)N[C@@H](CCC(=O)O)C(N)=O [Ac-4mer, Ac-ARAE-NH2] (Ac-ARAE-NH2) | Ki [1]: 0.08 ± 0.01 µM; IC50 [2]: 400 ± 50 nM
– | CC(=O)N[C@@H](C)C(=O)N[C@@H](CCCNC(=N)N)C(=O)N[C@@H](C)C(N)=O [Ac-3mer, Ac-ARA-NH2] (Ac-Ala-Arg-Ala-NH2) | Ki [1]: 0.12 ± 0.01 µM; IC50 [2]: 540 ± 30 nM
– | C[C@H](N)C(=O)N[C@@H](CCCNC(=N)N)C(=O)N[C@H](C(N)=O)[C@@H](C)O [Compound H3-3mer, H2N-ART-NH2, reference compound] (H-Ala-Arg-Thr-NH2) | Ki [1]: 27.3 ± 2.5 µM; IC50 [2]: 127000 ± 12000 nM
< 1000 nM | CCC(CC)(NC(C)=O)C(=O)N[C@@H](CCCNC(=N)N)C(=O)NC1(C(N)=O)CCCC1 [Compound 6G] | –
< 1000 nM | CC[C@H](NC(=O)[C@H](CCCNC(=N)N)NC(=O)C1(NC(C)=O)CCC1)C(=O)NC(c1ccccc1)c1ccccc1 [Compound 8B] | –
> 1000 nM | CCC(CC)(NC(=O)C(C)C)C(=O)N[C@@H](CCCNC(=N)N)C(=O)NCCCc1ccccc1 [Compound 11M] | –
> 10000 nM | CCCCC(=O)N[C@@H](C)C(=O)N[C@@H](CCCNC(=N)N)C(=O)N[C@@H](C)C(N)=O [Compound 9D] (Pentanoyl-Ala-Arg-Ala-NH2) | –
– | COC(=O)[C@H](C)NC(=O)[C@H](CCCNC(=N)N)NC(=O)[C@H](C)NC(C)=O [Δ2c, Ac-ARA-COOCH3] (Ac-Ala-Arg-Ala-OMe) | Ki [1]: 1.6 ± 0.2 µM; IC50 [2]: 7300 ± 800 nM; times less potent than Ac-3mer: 10
< 5000 nM | C[C@H](NC(=O)[C@H](CCCNC(=N)N)NC(=O)[C@H](C)NC(=O)C1CC1)C(N)=O [Compound 9E] | –
< 1000 nM | CCC(CC)NC(=O)[C@H](C)NC(=O)[C@H](CCCNC(=N)N)NC(=O)[C@H](C)NC(C)=O [Compound 7B] | –
< 10000 nM | C[C@H](NC(=O)[C@H](CCCNC(=N)N)NC(=O)[C@H](C)NC(=O)C1CCC1)C(N)=O [Compound 9F] | –
< 1000 nM | CCC(CC)NC(=O)[C@H](CCCNC(=N)N)NC(=O)C(CC)(CC)NC(=O)C(C)C [Compound 11B] | –
– | Ac-RAEVHLRKS-NH2 [Ac-9mer] | fold decrease of binding affinity relative to Ac-10mer (ratio vs Ac-10mer): 1500
< 1000 nM | CC(=O)N[C@H](C(=O)N[C@@H](CCCNC(=N)N)C(=O)NC1(C(N)=O)CCCC1)C(C)C [Compound 5C] | –
< 1000 nM | CC(C)C(=O)N[C@@H](C)C(=O)N[C@@H](CCCNC(=N)N)C(=O)N[C@@H](C)C(N)=O [Compound 9A] (Isobutyryl-Ala-Arg-Ala-NH2) | –
< 1000 nM | CC(=O)NC(C)(C)C(=O)N[C@@H](CCCNC(=N)N)C(=O)NC1(C(N)=O)CCCC1 [Compound 6B] | –
< 10000 nM | CC(=O)N[C@H](C(=O)N[C@@H](CCCNC(=N)N)C(=O)NC1(C(N)=O)CCC1)C(C)C [Compound 5B] | –
< 1000 nM | CC(=O)NC(C)(C)C(=O)N[C@@H](CCCNC(=N)N)C(=O)N[C@H](C(N)=O)[C@@H](C)O [Compound 6C] (Ac-[Aib]-Arg-Thr-NH2) | –
< 30000 nM | CCC(CC)(NC(=O)C(C)C)C(=O)N[C@@H](CCCNC(=N)N)C(=O)NCc1ccccc1 [Compound 11D] (Isobutyryl-[Deg]-Arg-NHBn) | –
< 1000 nM | CC[C@H](NC(=O)[C@H](CCCNC(=N)N)NC(=O)C1(NC(C)=O)CCC1)C(=O)NCc1ccccc1 [Compound 8A] | –
< 1000 nM | CC(=O)N[C@@H](C)C(=O)N[C@@H](CCCNC(=N)N)C(=O)N[C@H](C(N)=O)[C@@H](C)O [Compound 3I] (Ac-Ala-Arg-Thr-NH2) | –
< 10000 nM | CC(=O)N[C@H](C(=O)N[C@@H](CCCNC(=N)N)C(=O)NC1(C(N)=O)CC1)C(C)C [Compound 5A] | –
< 1000 nM | CC(=O)N[C@@H](C)C(=O)N[C@@H](CCCNC(=N)N)C(=O)N[C@@H](C)C(=O)NC1CCCCC1 [Compound 7C] | –
> 10000 nM | CCC(CC)(NC(=O)C(C)C)C(=O)N[C@@H](CCCNC(=N)N)C(=O)NCCc1ccccc1 [Compound 11L] (Isobutyryl-[Deg]-Arg-NHPhenethyl) | –
– | CC(=O)N[C@@H](C)C(=O)N[C@@H](CCCNC(=N)N)C(=O)N(C)[C@@H](C)C(N)=O [Δ1, Ac-AR-(N—Me)A-NH2] | binding to WDR5 (in words): complete loss of its binding to WDR5

IC50 [3] | Molecule | also measured
– | CC(=O)N[C@@H](C)C(=O)N[C@@H](CCCNC(=N)N)C(=O)N[C@H](C(=O)N[C@@H](CCCCN)C(=O)N[C@@H](CCC(N)=O)C(=O)N[C@H](C(=O)N[C@@H](C)C(=O)N[C@@H](CCCNC(=N)N)C(=O)N[C@@H](CCCCN)C(=O)N[C@@H](CO)C(N)=O)[C@@H](C)O)[C@@H](C)O [Ac-H3-10mer] | IC50 [2]: 6 ± 2 nM; fold increase of binding affinity to WDR5 on acetylation of the free amino group (vs corresponding unacetylated H3 peptide): greater than 10,000
> 10000 nM | CC(=O)N[C@@H](C)C(=O)N[C@H](C(=O)N[C@@H](C)C(N)=O)C1CCN(C(=N)N)CC1 [Compound 2G] | –
< 1000 nM | CC(=O)NC1(C(=O)N[C@@H](CCCNC(=N)N)C(=O)N[C@H](C(N)=O)[C@@H](C)O)CCC1 [Compound 6F] (Ac-[Ac4c]-Arg-Thr-NH2) | –
> 5000 nM | CCC(CC)(NC(=O)c1ccccc1)C(=O)N[C@H](CCCNC(=N)N)C(=O)NC1(C(N)=O)CCCC1 [Compound 10F] | –
< 20000 nM | CCC(CC)(NC(=O)C(C)C)C(=O)N[C@H](CCCNC(=N)N)C(=O)NC1(C(N)=O)CCCC1 [Compound 10D] | –
< 1000 nM | CC(=O)NC1(C(=O)N[C@@H](CCCNC(=N)N)C(=O)NC2(C(N)=O)CCCC2)CCC1 [Compound 6E] | –
< 1000 nM | CCC(CC)(NC(=O)C(C)C)C(=O)N[C@@H](CCCNC(=N)N)C(=O)NC1(C(N)=O)CCCC1 [Compound 10C] | –
– | CC(C)C[C@H](NC(=O)[C@H](Cc1c[nH]cn1)NC(=O)[C@@H](NC(=O)[C@H](CCC(=O)O)NC(=O)[C@H](C)NC(=O)[C@H](CCCNC(=N)N)NC(=O)[C@H](C)N)C(C)C)C(=O)N[C@@H](CCCNC(=N)N)C(=O)N[C@@H](CCCCN)C(=O)N[C@@H](CO)C(N)=O [Compound H2N-10mer] | Ki [1]: 7.3 ± 0.7 µM; IC50 [2]: 34000 ± 3000 nM
< 5000 nM | CCCC(=O)N[C@@H](C)C(=O)N[C@@H](CCCNC(=N)N)C(=O)N[C@@H](C)C(N)=O [Compound 9C] (Butyryl-Ala-Arg-Ala-NH2) | –
< 1000 nM | CC[C@H](NC(=O)[C@H](CCCNC(=N)N)NC(=O)C(C)(C)NC(C)=O)C(N)=O [Compound 6A] | –
> 1000 nM | CCCC[C@H](NC(=O)[C@H](C)NC(C)=O)C(=O)N[C@@H](C)C(N)=O [Compound 2A] | –
< 10000 nM | CNC(=O)N[C@@H](C)C(=O)N[C@@H](CCCNC(=N)N)C(=O)N[C@@H](C)C(N)=O [Compound 9K] ({NHMe-CO}-Ala-Arg-Ala-NH2) | –
< 10000 nM | CCC(CC)(NC(=O)C(C)C)C(=O)N[C@@H](CCCNC(=N)N)C(=O)Nc1ccccc1 [Compound 11C] (Isobutyryl-[Deg]-Arg-NHPh) | –
< 10000 nM | CCC(CC)(NC(=O)c1ccccc1)C(=O)N[C@H](CCCNC(=N)N)C(=O)NC1(C(=O)NC(c2ccccc2)c2ccccc2)CCCC1 [Compound 10J] | –
– | Ac-SARAEVHLRKS-NH2 [Ac-11mer] | Ki [1]: 0.2 ± 0.03 µM; IC50 [2]: 1040 ± 140 nM
< 30000 nM | CCC(CC)(NC(=O)C(C)C)C(=O)N[C@@H](CCCNC(=N)N)C(=O)N[C@H](C)c1ccccc1 [Compound 11F] | –
< 1000 nM | CC(=O)NC1(C(=O)N[C@@H](CCCNC(=N)N)C(=O)N[C@H](C(N)=O)C(C)C)CCC1 [Compound 4B] | –
– | CC(=O)N[C@@H](C)C(=O)N[C@@H](CCCNC(=N)N)C(=O)N[C@@H](C)C(=O)N(C)C [Δ2b, Ac-ARA-CONMe2] (Ac-Ala-Arg-Ala-NMe2) | Ki [1]: 6.5 ± 1.2 µM; IC50 [2]: 30000 ± 5000 nM; times less potent than Ac-3mer: 50
< 10000 nM | CCC(CC)(NC(=O)C(C)C)C(=O)N[C@@H](CCCNC(=N)N)C(=O)NC1CCCCC1 [Compound 11E] | –
< 1000 nM | CC(=O)N[C@@H](C)C(=O)N[C@@H](CCCNC(=N)N)C(=O)N[C@@H](C)C(=O)NC(c1ccccc1)c1ccccc1 [Compound 7F] | –
< 3000 nM | CC[C@H](C)NC(=O)[C@H](CCCNC(=N)N)NC(=O)C(CC)(CC)NC(=O)C(C)C [Compound 11A] | –
< 1000 nM | CC(=O)N[C@@H](C)C(=O)N[C@@H](CCCNC(=N)N)C(=O)N[C@@H](C)C(=O)NC(C)C [Compound 7A] (Ac-Ala-Arg-Ala-NHiPr) | –
< 1000 nM | CC(C)C(=O)NC1(C(=O)N[C@@H](CCCNC(=N)N)C(=O)NC2(C(=O)NC(c3ccccc3)c3ccccc3)CCCC2)CCC1 [Compound 10B] | –
– | C[C@H](N)C(=O)N[C@@H](CCCNC(=N)N)C(=O)N[C@H](C(=O)N[C@@H](CCCC[N+](C)(C)C)C(=O)N[C@@H](CCC(N)=O)C(=O)N[C@H](C(=O)N[C@@H](C)C(=O)N[C@@H](CCCNC(=N)N)C(=O)N[C@@H](CCCCN)C(=O)N[C@@H](CO)C(N)=O)[C@@H](C)O)[C@@H](C)O [L3-10mer-K4Me3, H2N-ARTK(Me3)QTARKS-NH2, reference compound] | Ki [1]: 15.6 ± 1.2 µM; IC50 [2]: 73000 ± 6000 nM
– | C[C@H](N)C(=O)N[C@@H](CCCNC(=N)N)C(=O)N[C@H](C(=O)N[C@@H](CCCCN)C(=O)N[C@@H](CCC(N)=O)C(=O)N[C@H](C(=O)N[C@@H](C)C(=O)N[C@@H](CCCNC(=N)N)C(=O)N[C@@H](CCCCN)C(=O)N[C@@H](CO)C(N)=O)[C@@H](C)O)[C@@H](C)O [Compound H3-10mer, reference compound] | Ki (4 nM WDR5Δ23, 0.6 nM 10mer-Thr-FAM tracer, listed as wild-type H3 peptide): 15 µM; IC50 [2]: 70000 ± 6000 nM
